Patent US10441663B2, “Methods for treating cancer” (Bicycle Therapeutics Limited, priority 2016, dated 2019)
*1 amine or outer side, *2 acyl side, *3 side chain or, on linkers, in order; H or OH if unused. Where a SMILES comes first, the peptide text is derived from it. Bridges are numbered along the chain shown (N, C = ends). [ ]: non-standard residue; d: D form. The star is where a group is joined. X1 = COc1cc2cc(c1Cl)N(C)C(=O)C[C@H](OC(=O)[C@H](C)N(C)C(=O)CCSSC(C)CCC(=O)*)[C@]1(C)O[C@H]1[C@H](C)[C@@H]1C[C@@](O)(NC(=O)O1)[C@H](OC)/C=C/C=C(\C)C2; 1Nal = N[C@@H](Cc1cccc2ccccc12)C(=O)O; TBMB = c1c(C[*:1])cc(C[*:3])cc1C[*:2]; Tle = CC(C)(C)[C@H](N)C(=O)O; βAla = NCCC(=O)O; Sar = CNCC(=O)O

Columns and labels:
[1] = system: LU-01-0046 non-small-cell lung carcinoma (NSCLC) PDX model; test: Efficacy in LU-01-0046 NSCLC PDX model (high MT1-expressing, docetaxel resistant); type: in vivo, Balb/C nude mice
Source text: The objective of the project is to evaluate the in vivo therapeutic efficacy of test articles in the LU-01-0046 non-small-cell lung carcinoma (NSCLC) PDX model. LU-01-0046 is a high MT1-expressing NSCLC that is docetaxel resistant.
Each mouse was inoculated subcutaneously at the right flank with certain kind of tumor fragment (30 mm3) for tumor development. The treatments started when the average tumor volume reaches approximately 150-200 mm^3. The test article administration and the animal numbers in each group are shown in Table 40 which details the experimental design.
Treatment was given until the control tumors reached an average of 1000 mm^3.
Before commencement of treatment all animals will be weighed and the tumor volumes will be measured. Since the tumor volume can affect the effectiveness of any given treatment, mice will be assigned into groups using randomized block design based upon their tumor volumes.
The protocol and any amendment(s) or procedures involving the care and use of animals in this study will be reviewed and approved prior to conduct. […] At the time of routine monitoring, the animals will be checked for any effects of tumor growth and treatments on normal behavior such as mobility, food and water consumption, body weight gain/loss (body weights will be measured twice weekly), eye/hair matting and any other abnormal effect. Death and observed clinical signs will be recorded on the basis of the numbers of animals within each subset.
The major endpoint is to see if the tumor growth can be delayed or mice can be cured. Tumor sizes will be measured twice weekly in two dimensions using a caliper and the volume will be expressed in mm^3 using the formula: V=0.5 a×b^2 where a and b are the long and short diameters of the tumor, respectively. […] T-C is calculated with T as the median time (in days) required for the treatment group tumors to reach a predetermined size (e.g., 1.000 mm^3), and C is the median time (in days) for the control group tumors to reach the same size. […]
TGI is calculated for each group using the formula. […]

[2] = system: HT1080 cell line; test: In vitro cytotoxicity, ATP endpoint assay after 72 hours incubation; type: cell-based; conditions: HT-1080 cells
Procedure: To evaluate the in vitro cytotoxicity of BT1718 and BT1721 in an HT1080 cell line using an ATP endpoint assay after 72 hours incubation.
Cells were seeded in 96 well plates (75 μl/well, HT1080=7500−15000 cell/well) and incubated overnight at 37° C.+5% CO2.
The day after cell seeding, serial dilutions (1:5) of BT1718 and BT1721 were prepared in DMSO and diluted 1:71 in cell culture media to give 4× final concentrations. Twenty five μl/well was added to the cells (2 μM or 5 μM top final concentration of BT1718 and 2 μM or 5 μM top final concentration of BT1721, <0.6% final DMSO).
Cells were 30-50% confluent upon dosing. Control wells containing 5 μM final concentration of staurosporine (positive control), lysis buffer (1% NP40, 20 mM Tris pH8, 137 mM NaCl, 10% glycerol, 2 mM EDTA, 1 mM Na Orthovanadate, 10 μg/ml leupeptin, 10 μg/ml aprotinin) positive control or media (negative control), were also included. Plates were sealed with gas permeable seals and incubated at 37° C.+5% CO2 for 72 hours. No wash steps were performed.
After a total of 72 hours after dosing, ATPLite reagent (Perkin Elmer) was equilibrated to room temperate and reconstituted in the supplied buffer as per the manufacturer's instructions. One hundred μl 1× detection reagent was added per well. Plates were sealed, protected from light and shaken gently for 20 minutes to ensure complete cell lysis before luminescence was read using a BMG Pherastar FS plate reader. […] Data was analysed using GraphPad Prism. Non-linear regression fit was used to calculate a relative IC50 for each toxic agent: Y=Bottom+(Top−Bottom)/(1+10^((Log Ic50−X)*HillSlope)) where the IC50 is defined as 50% of the total cell kill achieved at the top concentration of toxin.

**Q.** For `COc1cc2cc(c1Cl)N(C)C(=O)C[C@H](OC(=O)[C@H](C)N(C)C(=O)CCSSC(C)CCC(=O)NCCC(=O)N(C)CC(=O)N(C)CC(=O)N(C)CC(=O)N(C)CC(=O)N(C)CC(=O)N(C)CC(=O)N(C)CC(=O)N(C)CC(=O)N(C)CC(=O)N(C)CC(=O)N[C@@H](C)C(=O)N[C@H]1CSCc3cc4cc(c3)CSC[C@H](NC(=O)[C@@H](C)NC(=O)[C@H](Cc3cccc5ccccc35)NC(=O)[C@H](CCC(=O)O)NC(=O)[C@H](CC(N)=O)NC(=O)[C@@H](C)NC1=O)C(=O)N[C@@H](CCC(=O)O)C(=O)N[C@@H](CC(=O)O)C(=O)N[C@@H](Cc1ccccc1)C(=O)N[C@@H](Cc1ccc(O)cc1)C(=O)N[C@@H](CC(=O)O)C(=O)N[C@@H](C(C)(C)C)C(=O)N[C@H](C(N)=O)CSC4)[C@]1(C)O[C@H]1[C@H](C)[C@@H]1C[C@@](O)(NC(=O)O1)[C@H](OC)/C=C/C=C(\C)C2` (some centres unmarked) [BT1718] ({X1-βAla}-[Sar][Sar][Sar][Sar][Sar][Sar][Sar][Sar][Sar][Sar]AC[dA]NE[1Nal][dA]CEDFYD[Tle]C-NH2; linker 12-18-25 via TBMB (inferred)), which tumor response ([1]; 3 mg/kg biw) is on record?
**A.** tumor stasis

**Q.** And the “relapse after cessation of dosing” value ([1]; 10 mg/kg biw)?
**A.** lack of relapse

**Q.** What about the tumor response ([1]; 10 mg/kg biw) of the same molecule?
**A.** tumor eradication

**Q.** And the IC50 ([2]; ATP endpoint)?
**A.** 1 nM

**Q.** What about the “relative cytotoxic activity versus BT1721” value [2] of the same molecule?
**A.** approximately ten-fold more active
